We go through 7 molecules from PubChem BioAssay (NCI).

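A five-concentration, 48-hour dose response in 96-well plates underlies each endpoint, interpolated linearly between surrounding concentrations. Here, GI50 denotes the concentration required for 50% inhibition of growth. The concentration for full growth arrest is given as TGI.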

Among the test systems are KM12 colon; DU-145 prostate; TK-10 renal; PC-3 prostate; OVCAR-3 ovarian; SF-295 CNS; HCT-15 colon; HOP-62 NSCLC; HL-60(TB) leukemia; SNB-75 CNS.
Experiment in all cases: DTP human tumour cell line panel, 48 h

One may read the GI50 as the concentration that inhibits growth by half. Broadly, the TGI is the concentration at which net growth stops. As for `Cc1cc(-c2ccco2)cc(C)c1/C=C/c1cncc(-c2nn[nH]n2)c1`, the GI50 in the assay on KM12 colon, in the assay with DU-145 prostate, in the assay with TK-10 renal, in the assay with PC-3 prostate, in the assay with OVCAR-3 ovarian and in the assay with SF-295 CNS was greater than 25 µM each time. Moreover, the GI50 in the assay with HCT-15 colon, in the assay with HOP-62 NSCLC, in the assay with HL-60(TB) leukemia and in the assay with SNB-75 CNS was greater than 25 µM each time. Moreover, the TGI in the assay with KM12 colon, in the assay on DU-145 prostate, in the assay on TK-10 renal, with PC-3 prostate, in the assay with OVCAR-3 ovarian and with SF-295 CNS was greater than 25 µM throughout. In addition, the TGI in the assay on HCT-15 colon, in the assay on HOP-62 NSCLC, with HL-60(TB) leukemia and in the assay on SNB-75 CNS was greater than 25 µM throughout.

For the molecule `Cc1cn2c(/C=C3/C(=O)Nc4ccc(C(=O)O)cc43)c(C)nc2s1`, the GI50 in the assay with KM12 colon, with DU-145 prostate, in the assay with TK-10 renal, in the assay with PC-3 prostate, with OVCAR-3 ovarian and in the assay on SF-295 CNS was greater than 100 µM each time. Further, the GI50 with HCT-15 colon, in the assay with HOP-62 NSCLC, in the assay on HL-60(TB) leukemia and in the assay with SNB-75 CNS was greater than 100 µM in each case. Besides, the TGI in the assay on KM12 colon, with DU-145 prostate, in the assay with TK-10 renal, in the assay on PC-3 prostate, with OVCAR-3 ovarian and in the assay on SF-295 CNS was greater than 100 µM each time. Further, the TGI in the assay on HCT-15 colon, in the assay on HOP-62 NSCLC, with HL-60(TB) leukemia and in the assay with SNB-75 CNS was greater than 100 µM in each case.

In the case of `O=S(=O)(NCCCNc1nccc(-c2c(-c3cccc(F)c3)nc3occn23)n1)c1cccc2ccccc12`, the GI50 in the assay on KM12 colon was 3.8 µM; with DU-145 prostate, 6.97 µM; in the assay with TK-10 renal, 11 µM; in the assay on PC-3 prostate, 3.38 µM; with OVCAR-3 ovarian, 13.5 µM; with SF-295 CNS it was 5.5 µM. Besides, the GI50 was 3.31 µM in the assay with HCT-15 colon, 97.1 µM with HOP-62 NSCLC, 4.21 µM in the assay on HL-60(TB) leukemia and 3.38 µM in the assay with SNB-75 CNS. In addition, the TGI with KM12 colon, in the assay on DU-145 prostate, in the assay with TK-10 renal, in the assay with PC-3 prostate, in the assay on OVCAR-3 ovarian and in the assay on SF-295 CNS was greater than 100 µM throughout. In addition, the TGI with HCT-15 colon is greater than 100 µM; in the assay on HOP-62 NSCLC it was greater than 100 µM; in the assay with HL-60(TB) leukemia it was 72.2 µM; in the assay on SNB-75 CNS, greater than 100 µM.

For `O=C1C2C(C(=O)N1CC[Se][Se]CCN1C(=O)C3C(C1=O)[C@H]1C=C[C@@H]3C1)[C@H]1C=C[C@@H]2C1` (stereo partly drawn), the GI50 in the assay on KM12 colon was 1.35 µM; in the assay with DU-145 prostate, 0.555 µM; in the assay with TK-10 renal it was 0.303 µM; in the assay with PC-3 prostate it was 0.844 µM; in the assay with OVCAR-3 ovarian, 0.852 µM; with SF-295 CNS, 1.11 µM. In addition, the GI50 with HCT-15 colon was 0.441 µM; in the assay on HOP-62 NSCLC it was 0.488 µM; with HL-60(TB) leukemia it was 0.209 µM; with SNB-75 CNS, 0.171 µM. Besides, the TGI in the assay with KM12 colon came out at 10.2 µM; with DU-145 prostate it was 2.86 µM; in the assay on TK-10 renal, 0.994 µM; with PC-3 prostate it was 4.39 µM; with OVCAR-3 ovarian it was 2.94 µM; with SF-295 CNS, 2.42 µM. The TGI was determined as 2.33 µM with HCT-15 colon, 2.66 µM in the assay on HOP-62 NSCLC, 0.477 µM with HL-60(TB) leukemia and 0.488 µM with SNB-75 CNS.

In the case of `Cc1cc2c(cc1C)[n+](=O)c(C(=O)/C=C/c1ccccc1[N+](=O)[O-])c(C)n2[O-]`, the TGI is greater than 100 µM in the assay with KM12 colon; greater than 100 µM in the assay on DU-145 prostate; 69.7 µM with TK-10 renal; greater than 100 µM in the assay with PC-3 prostate; greater than 97 µM with OVCAR-3 ovarian; 64.6 µM with SF-295 CNS. Also, the TGI in the assay with HCT-15 colon was greater than 100 µM; in the assay with HOP-62 NSCLC it was greater than 84.1 µM; in the assay with HL-60(TB) leukemia it was greater than 100 µM; in the assay with SNB-75 CNS it was 41.1 µM.

For `COC(=O)C1=Nc2ccc(F)cc2/C1=C/c1sc(=S)[nH]c1O`, the GI50 with KM12 colon is 0.0734 µM; with DU-145 prostate, 0.222 µM; in the assay on TK-10 renal, 0.848 µM; in the assay with PC-3 prostate, 0.128 µM; in the assay with OVCAR-3 ovarian, 0.0441 µM; with SF-295 CNS it was 0.125 µM. The 50% growth inhibitory concentration (GI50) in the assay with HCT-15 colon is 0.0663 µM; in the assay on HOP-62 NSCLC it was 0.18 µM; with HL-60(TB) leukemia, 0.263 µM; in the assay with SNB-75 CNS, 0.0301 µM. Moreover, the TGI in the assay with KM12 colon is 10.7 µM; in the assay on DU-145 prostate it was greater than 36.2 µM; with TK-10 renal, 19.3 µM; in the assay with PC-3 prostate, 26.3 µM; in the assay with OVCAR-3 ovarian, 3.66 µM; in the assay on SF-295 CNS, 13.2 µM. The TGI in the assay with HCT-15 colon was greater than 100 µM; with HOP-62 NSCLC, 18.7 µM; with SNB-75 CNS, 11.8 µM.

For the molecule `Cc1ccc(NC(=O)c2ccc(NC3=C(Cl)C(=O)N(Cc4ccccc4)C3=O)cc2)cc1Cl`, the GI50 in the assay on KM12 colon was 31 µM; in the assay with DU-145 prostate, 0.624 µM; in the assay with TK-10 renal, 17.4 µM; with PC-3 prostate, 12.5 µM; in the assay on OVCAR-3 ovarian, 3.6 µM; in the assay on SF-295 CNS, 19.9 µM. Moreover, the figures for the GI50 with HCT-15 colon, with HOP-62 NSCLC and with SNB-75 CNS were 2.25 µM, 12.2 µM and 23.9 µM, respectively. Also, the TGI in the assay with KM12 colon was greater than 100 µM; in the assay on DU-145 prostate, 7.73 µM; with TK-10 renal it was 40.5 µM; in the assay on PC-3 prostate it was 25.1 µM; in the assay with OVCAR-3 ovarian it was 18.7 µM; with SF-295 CNS, greater than 100 µM. Further, the TGI in the assay on HCT-15 colon was found to be 13.2 µM; in the assay on HOP-62 NSCLC it was 31.9 µM; in the assay on HL-60(TB) leukemia it was 14.6 µM; in the assay with SNB-75 CNS, 76.8 µM.
